# Species on record: Rattus norvegicus
# Assay: Open TG-GATES - Regimen: Daily Repeat
# Type: toxicity, organism-based, Sprague-Dawley
# Set-up: regimen Daily Repeat, gender Male, age 6 weeks
# Settings: in vivo, po, route gavage; for APTT / Bas / Eos / Fbg / Hb / Ht / Lym / MCH / MCHC / MCV / Mono / Neu / PT / Plat / RBC / Ret / WBC: tissue Blood; for KIDNEY_L / KIDNEY_R / KIDNEY_TOTAL: tissue Kidney; for LIVER: tissue Liver; for ALP / ALT / AST / BUN / CRE / DBIL / GLC / K / Na / PL / RALB / TBIL / TC / TG / TP / gamma-GTP: tissue Plasma
# [1] = 0 mg/kg, 72 h, dose level Control, time 3 day
# [2] = 0 mg/kg, […], dose level Control, time 7 day
# [3] = 0 mg/kg, […], dose level Control, time 14 day
# [4] = 0 mg/kg, […], dose level Control, time 28 day
# [5] = 25 mg/kg, 72 h, dose level Low, time 3 day
# [6] = 25 mg/kg, […], dose level Low, time 7 day
# [7] = 25 mg/kg, […], dose level Low, time 14 day
# [8] = 25 mg/kg, […], dose level Low, time 28 day
smiles,measurement,setting,value
CN1C(=O)CN=C(c2ccccc2)c2cc(Cl)ccc21 [DIAZEPAM],TERMINAL_BW,[1],246.7 g
same,APTT,[1],16.3 s
same,Bas,[1],0%
same,Eos,[1],1.2%
same,Fbg,[1],235.6 mg/dL
same,Hb,[1],13.5 g/dL
same,Ht,[1],40.6%
same,Lym,[1],78.6%
same,MCH,[1],21.4 pg
same,MCHC,[1],33.2%
same,MCV,[1],64.4 fL
same,Mono,[1],6.4%
same,Neu,[1],14.2%
same,PT,[1],12 s
same,Plat,[1],114.2 x10_4/uL
same,RBC,[1],630.6 x10_4/ul
same,Ret,[1],6.6%
same,WBC,[1],104 x10_2/uL
same,KIDNEY_L,[1],1.1 g
same,KIDNEY_R,[1],1.1 g
same,KIDNEY_TOTAL,[1],2.2 g
same,LIVER,[1],12.5 g
same,ALP,[1],817.2 IU/L
same,ALT,[1],34.2 IU/L
same,AST,[1],59.4 IU/L
same,BUN,[1],17.2 mg/dL
same,CRE,[1],0.5 mg/dL
same,DBIL,[1],0.006 mg/dL
same,GLC,[1],198.8 mg/dL
same,K,[1],5 meq/L
same,Na,[1],138.9 meq/L
same,PL,[1],154 mg/dL
same,RALB,[1],4 g/dL
same,TBIL,[1],0.3 mg/dL
same,TC,[1],78.4 mg/dL
same,TG,[1],115.4 mg/dL
same,TP,[1],6 g/dL
same,gamma-GTP,[1],1.6 IU/L
same,TERMINAL_BW,[2],289.2 g
same,TERMINAL_BW,[3],333.2 g
same,TERMINAL_BW,[4],416.1 g
same,APTT,[2],16 s
same,Bas,[2],0%
same,Eos,[2],1%
same,Fbg,[2],237.8 mg/dL
same,Hb,[2],14.2 g/dL
same,Ht,[2],42.8%
same,Lym,[2],79.2%
same,MCH,[2],21.8 pg
same,MCHC,[2],33.2%
same,MCV,[2],65.6 fL
same,Mono,[2],9.4%
same,Neu,[2],11%
same,PT,[2],11.4 s
same,Plat,[2],106.5 x10_4/uL
same,RBC,[2],653.4 x10_4/ul
same,Ret,[2],6.3%
same,WBC,[2],120.8 x10_2/uL
same,APTT,[3],16.4 s
same,Bas,[3],0%
same,Eos,[3],0.6%
same,Fbg,[3],234 mg/dL
same,Hb,[3],15.2 g/dL
same,Ht,[3],45.6%
same,Lym,[3],80.6%
same,MCH,[3],20.9 pg
same,MCHC,[3],33.3%
same,MCV,[3],62.9 fL
same,Mono,[3],3.6%
same,Neu,[3],14.8%
same,PT,[3],12 s
same,Plat,[3],92.8 x10_4/uL
same,RBC,[3],725.4 x10_4/ul
same,Ret,[3],4.5%
same,WBC,[3],149.8 x10_2/uL
same,APTT,[4],17 s
same,Bas,[4],0%
same,Eos,[4],1.2%
same,Fbg,[4],227.2 mg/dL
same,Hb,[4],15.8 g/dL
same,Ht,[4],47.5%
same,Lym,[4],83.6%
same,MCH,[4],19 pg
same,MCHC,[4],33.3%
same,MCV,[4],57 fL
same,Mono,[4],6.4%
same,Neu,[4],9%
same,PT,[4],12.3 s
same,Plat,[4],102.6 x10_4/uL
same,RBC,[4],833 x10_4/ul
same,Ret,[4],2.2%
same,WBC,[4],146.4 x10_2/uL
same,KIDNEY_L,[2],1.2 g
same,KIDNEY_R,[2],1.3 g
same,KIDNEY_TOTAL,[2],2.5 g
same,KIDNEY_L,[3],1.3 g
same,KIDNEY_R,[3],1.3 g
same,KIDNEY_TOTAL,[3],2.7 g
same,KIDNEY_L,[4],1.4 g
same,KIDNEY_R,[4],1.5 g
same,KIDNEY_TOTAL,[4],2.9 g
same,LIVER,[2],14.8 g
same,LIVER,[3],14.8 g
same,LIVER,[4],17.1 g
same,ALP,[2],843.2 IU/L
same,ALT,[2],37.2 IU/L
same,AST,[2],60.4 IU/L
same,BUN,[2],17.8 mg/dL
same,CRE,[2],0.5 mg/dL
same,DBIL,[2],0.02 mg/dL
same,GLC,[2],188.8 mg/dL
same,K,[2],5.1 meq/L
same,Na,[2],137.6 meq/L
same,PL,[2],184.8 mg/dL
same,RALB,[2],4.2 g/dL
same,TBIL,[2],0.3 mg/dL
same,TC,[2],92.8 mg/dL
same,TG,[2],164.6 mg/dL
same,TP,[2],6.4 g/dL
same,gamma-GTP,[2],1.6 IU/L
same,ALP,[3],714 IU/L
same,ALT,[3],37.4 IU/L
same,AST,[3],68.2 IU/L
same,BUN,[3],19.4 mg/dL
same,CRE,[3],0.6 mg/dL
same,DBIL,[3],0.01 mg/dL
same,GLC,[3],183.2 mg/dL
same,K,[3],4.6 meq/L
same,Na,[3],141.1 meq/L
same,PL,[3],149.2 mg/dL
same,RALB,[3],4 g/dL
same,TBIL,[3],0.3 mg/dL
same,TC,[3],72 mg/dL
same,TG,[3],131.8 mg/dL
same,TP,[3],6.4 g/dL
same,gamma-GTP,[3],1 IU/L
same,ALP,[4],591.2 IU/L
same,ALT,[4],28.4 IU/L
same,AST,[4],54.2 IU/L
same,BUN,[4],19.8 mg/dL
same,CRE,[4],0.7 mg/dL
same,DBIL,[4],0.002 mg/dL
same,GLC,[4],182.8 mg/dL
same,K,[4],4.5 meq/L
same,Na,[4],139.4 meq/L
same,PL,[4],147.8 mg/dL
same,RALB,[4],4.1 g/dL
same,TBIL,[4],0.2 mg/dL
same,TC,[4],67.2 mg/dL
same,TG,[4],165.6 mg/dL
same,TP,[4],6.6 g/dL
same,gamma-GTP,[4],1.2 IU/L
same,TERMINAL_BW,[5],248 g
same,APTT,[5],16.5 s
same,Bas,[5],0%
same,Eos,[5],1%
same,Fbg,[5],230 mg/dL
same,Hb,[5],13.9 g/dL
same,Ht,[5],42%
same,Lym,[5],84%
same,MCH,[5],21.5 pg
same,MCHC,[5],33.2%
same,MCV,[5],64.8 fL
same,Mono,[5],3.8%
same,Neu,[5],11.2%
same,PT,[5],12 s
same,Plat,[5],100.7 x10_4/uL
same,RBC,[5],647.8 x10_4/ul
same,Ret,[5],6.3%
same,WBC,[5],155.1 x10_2/uL
same,KIDNEY_L,[5],1.1 g
same,KIDNEY_R,[5],1.1 g
same,KIDNEY_TOTAL,[5],2.1 g
same,LIVER,[5],12 g
same,ALP,[5],908.6 IU/L
same,ALT,[5],37.4 IU/L
same,AST,[5],63.4 IU/L
same,BUN,[5],16.8 mg/dL
same,CRE,[5],0.6 mg/dL
same,DBIL,[5],0.016 mg/dL
same,GLC,[5],193.2 mg/dL
same,K,[5],4.7 meq/L
same,Na,[5],139.3 meq/L
same,PL,[5],150.4 mg/dL
same,RALB,[5],4.1 g/dL
same,TBIL,[5],0.3 mg/dL
same,TC,[5],81.4 mg/dL
same,TG,[5],76.4 mg/dL
same,TP,[5],6 g/dL
same,gamma-GTP,[5],1 IU/L
same,TERMINAL_BW,[6],279.2 g
same,TERMINAL_BW,[7],331.4 g
same,TERMINAL_BW,[8],411.1 g
same,APTT,[6],16.6 s
same,Bas,[6],0%
same,Eos,[6],0.8%
same,Fbg,[6],223 mg/dL
same,Hb,[6],14.2 g/dL
same,Ht,[6],42.5%
same,Lym,[6],79.6%
same,MCH,[6],20.8 pg
same,MCHC,[6],33.4%
same,MCV,[6],62.3 fL
same,Mono,[6],3.8%
same,Neu,[6],16.2%
same,PT,[6],11.4 s
same,Plat,[6],116.1 x10_4/uL
same,RBC,[6],681.6 x10_4/ul
same,Ret,[6],5.7%
same,WBC,[6],115.6 x10_2/uL
same,APTT,[7],16.6 s
same,Bas,[7],0%
same,Eos,[7],0.8%
same,Fbg,[7],225.8 mg/dL
same,Hb,[7],14.8 g/dL
same,Ht,[7],44.6%
same,Lym,[7],83.2%
same,MCH,[7],20.1 pg
same,MCHC,[7],33.3%
same,MCV,[7],60.3 fL
same,Mono,[7],5.6%
same,Neu,[7],10.6%
same,PT,[7],12 s
same,Plat,[7],110.6 x10_4/uL
same,RBC,[7],740 x10_4/ul
same,Ret,[7],4.1%
same,WBC,[7],120.7 x10_2/uL
same,APTT,[8],18 s
same,Bas,[8],0%
same,Eos,[8],0.6%
same,Fbg,[8],223.8 mg/dL
same,Hb,[8],15.8 g/dL
same,Ht,[8],47.2%
same,Lym,[8],83.4%
same,MCH,[8],19.3 pg
same,MCHC,[8],33.4%
same,MCV,[8],57.7 fL
same,Mono,[8],3.6%
same,Neu,[8],12%
same,PT,[8],12.1 s
same,Plat,[8],102.8 x10_4/uL
same,RBC,[8],818.6 x10_4/ul
same,Ret,[8],2.7%
same,WBC,[8],154.6 x10_2/uL
same,KIDNEY_L,[6],1.2 g
same,KIDNEY_R,[6],1.2 g
same,KIDNEY_TOTAL,[6],2.4 g
same,KIDNEY_L,[7],1.3 g
same,KIDNEY_R,[7],1.3 g
same,KIDNEY_TOTAL,[7],2.6 g
same,KIDNEY_L,[8],1.4 g
same,KIDNEY_R,[8],1.4 g
same,KIDNEY_TOTAL,[8],2.8 g
same,LIVER,[6],14.1 g
same,LIVER,[7],14.8 g
same,LIVER,[8],16.9 g
same,ALP,[6],886.2 IU/L
same,ALT,[6],33.6 IU/L
same,AST,[6],62 IU/L
same,BUN,[6],18.8 mg/dL
same,CRE,[6],0.5 mg/dL
same,DBIL,[6],0.024 mg/dL
same,GLC,[6],188.2 mg/dL
same,K,[6],4.9 meq/L
same,Na,[6],137.7 meq/L
same,PL,[6],170.4 mg/dL
same,RALB,[6],4.1 g/dL
same,TBIL,[6],0.3 mg/dL
same,TC,[6],77.8 mg/dL
same,TG,[6],168.6 mg/dL
same,TP,[6],6.1 g/dL
same,gamma-GTP,[6],1.2 IU/L
same,ALP,[7],848.8 IU/L
same,ALT,[7],34.4 IU/L
same,AST,[7],64.4 IU/L
same,BUN,[7],18.4 mg/dL
same,CRE,[7],0.6 mg/dL
same,DBIL,[7],0.002 mg/dL
same,GLC,[7],190.2 mg/dL
same,K,[7],4.4 meq/L
same,Na,[7],140.3 meq/L
same,PL,[7],148.2 mg/dL
same,RALB,[7],4 g/dL
same,TBIL,[7],0.3 mg/dL
same,TC,[7],66.4 mg/dL
same,TG,[7],154.8 mg/dL
same,TP,[7],6.1 g/dL
same,gamma-GTP,[7],0.8 IU/L
same,ALP,[8],483.4 IU/L
same,ALT,[8],30.6 IU/L
same,AST,[8],60.4 IU/L
same,BUN,[8],19.8 mg/dL
same,CRE,[8],0.6 mg/dL
same,DBIL,[8],0.016 mg/dL
same,GLC,[8],201.4 mg/dL
same,K,[8],4.3 meq/L
same,Na,[8],140.7 meq/L
same,PL,[8],135.6 mg/dL
same,RALB,[8],4 g/dL
same,TBIL,[8],0.3 mg/dL
same,TC,[8],63.6 mg/dL
same,TG,[8],134.2 mg/dL
same,TP,[8],6.5 g/dL
same,gamma-GTP,[8],1 IU/L

# Reference: ChEMBL document CHEMBL3885861, “Open TG-GATES”
